Experimental findings from paper PMC11951083, “Highly Specific Miniaturized Fluorescent Monoacylglycerol Lipase Probes Enable Translational Research” (Journal of the American Chemical Society, 2025) are described below.

Molecules are shown by their SMILES. Converted amounts (≈) assume the structure as drawn. Like-named read-outs stand apart in the source and are kept apart here.

One series addresses T1, MAGL (Homo sapiens, UniProt Q99685).
T1 sequence (Q99685 1-303): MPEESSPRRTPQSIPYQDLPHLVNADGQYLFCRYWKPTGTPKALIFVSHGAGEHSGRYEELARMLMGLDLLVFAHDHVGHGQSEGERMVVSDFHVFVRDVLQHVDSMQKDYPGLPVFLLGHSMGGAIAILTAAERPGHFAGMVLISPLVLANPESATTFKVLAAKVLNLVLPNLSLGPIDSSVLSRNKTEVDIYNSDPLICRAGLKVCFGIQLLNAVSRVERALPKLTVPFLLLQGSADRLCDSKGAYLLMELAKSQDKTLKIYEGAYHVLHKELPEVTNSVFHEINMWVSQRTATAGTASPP
The experiment in a line: Native MS (RapidFire) 2-AG substrate assay, purified human MAGL. In kind it is biochemical. Particulars: purified human MAGL, native MS substrate assay; IC50 of covalent inhibitors time-dependent; read-out: IC50 hMAGL. The protocol:
(§1) In vitro MAGL Inhibition Assay
(§2) Compounds were profiled for MAGL inhibitory activity by determining the enzymatic activity by following the hydrolysis of the natural substrate 2-arachidonoylglycerol (2-AG), resulting in arachidonic acid, which can be followed by mass spectrometry. The 2-AG assay was carried out in 384 well assay plates (PP, Greiner Cat# 784201) in a total volume of 20 µL. Compound dilutions were made in 100% DMSO (VWR Chemicals 23500.297) in a polypropylene plate in 3-fold dilution steps to give a final concentration range in the assay from 12.5 µM to 0.8 pM. 0.25µL compound dilutions (100% DMSO) were added to 9 µL MAGL in assay buffer (50 mM TRIS (GIBCO, 15567-027), 1 mM EDTA (Fluka, 03690-100 mL), 0.01% (v/v) Tween. After shaking, the plate was incubated for 15 min at RT. To start the reaction, 10 µL 2-arachidonoylglycerol in assay buffer was added. The final concentrations in the assay were 50 pM MAGL and 8 µM 2-arachidonoylglyerol. After shaking and 30 min incubation at RT, the reaction was quenched by the addition of 40µL of ACN containing 4µM of d8-arachidonic acid. The amount of arachidonic acid was traced by an online SPE system (Agilent Rapidfire) coupled to a triple quadrupole mass spectrometer (Agilent 6460). A C18 SPE cartridge (G9205A) was used in an ACN/water liquid setup. The mass spectrometer was operated in negative electrospray mode following the mass transitions 303.1 → 259.1 for arachidonic acid and 311.1 → 267.0 for d8-arachidonic acid. The activity of the compounds was calculated based on the ratio of intensities [arachidonic acid / d8-arachidonic acid]. The lowest IC50 value that can be determined with high accuracy is approximately 0.025 nM.

The next series addresses T2, mMAGL (Mus musculus, UniProt O35678).
T2 sequence (O35678 1-303): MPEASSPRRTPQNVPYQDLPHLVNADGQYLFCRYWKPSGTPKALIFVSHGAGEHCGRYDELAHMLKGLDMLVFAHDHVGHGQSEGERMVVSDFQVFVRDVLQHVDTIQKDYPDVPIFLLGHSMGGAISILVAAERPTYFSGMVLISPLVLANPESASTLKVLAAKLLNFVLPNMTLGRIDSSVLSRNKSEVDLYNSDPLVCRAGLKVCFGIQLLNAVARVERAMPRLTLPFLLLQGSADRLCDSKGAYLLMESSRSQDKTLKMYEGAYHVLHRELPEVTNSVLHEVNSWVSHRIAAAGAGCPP
Description: Native MS (RapidFire) 2-AG substrate assay, purified mouse MAGL. In kind it is biochemical. Particulars: purified mouse MAGL, native MS substrate assay; read-out: IC50 mMAGL. How it is done: as §1, §2

In another series the target is T3, rMAGL (Rattus norvegicus, UniProt Q8R431).
T3 sequence (Q8R431 1-303): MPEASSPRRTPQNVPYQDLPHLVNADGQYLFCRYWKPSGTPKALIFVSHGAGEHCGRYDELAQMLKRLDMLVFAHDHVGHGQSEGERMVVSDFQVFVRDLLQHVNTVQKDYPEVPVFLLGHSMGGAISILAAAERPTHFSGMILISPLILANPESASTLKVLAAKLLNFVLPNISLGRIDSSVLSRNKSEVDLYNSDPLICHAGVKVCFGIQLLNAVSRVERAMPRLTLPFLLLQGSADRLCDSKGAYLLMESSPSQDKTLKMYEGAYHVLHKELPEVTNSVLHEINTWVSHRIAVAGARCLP
Description: Native MS (RapidFire) 2-AG substrate assay, purified rat MAGL. In kind it is biochemical. Particulars: for IC50: purified rat MAGL, native MS substrate assay, read-out: IC50 rMAGL. How it is done:
as §1, §2

Another series has as its target T4, cMAGL (Macaca fascicularis, UniProt A0A2K5V664).
T4 sequence (A0A2K5V664 11-297): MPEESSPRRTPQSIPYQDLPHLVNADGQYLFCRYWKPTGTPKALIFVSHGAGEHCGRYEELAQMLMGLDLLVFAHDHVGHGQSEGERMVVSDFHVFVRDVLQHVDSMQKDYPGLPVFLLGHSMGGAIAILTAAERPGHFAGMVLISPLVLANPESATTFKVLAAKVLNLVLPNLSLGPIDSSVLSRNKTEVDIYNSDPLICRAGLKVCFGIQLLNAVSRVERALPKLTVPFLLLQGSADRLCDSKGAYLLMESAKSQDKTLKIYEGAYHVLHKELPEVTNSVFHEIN
The experiment in a line: Native MS (RapidFire) 2-AG substrate assay, purified cynomolgus monkey MAGL. In kind it is biochemical. How it is done: as §1, §2

A short description of series [1]: High throughput kinetic solubility measurement. In kind it is physicochemical. The following applies: phosphate buffer, pH 6.5, aqueous buffer, kinetic from dmso stock.
Where [2] appears, read: purified cynomolgus monkey MAGL, native MS substrate assay, read-out: IC50 cMAGL.

As for `O=C(O[C@H](CO)C(F)(F)F)N1CC2(CC(CC3=C4C=CC=[N+]4[B-](F)(F)n4cccc43)C2)C1` [Compound 1], the IC50 on MAGL came to 0.28 nM; on mMAGL, 0.21 nM; at rMAGL, 0.36 nM; on cMAGL (setting [2]), 0.87 nM. In series [1], this compound yielded a kinetic solubility of 19 µg/mL (≈ 41.6 µM).
The corresponding values for `O=C(OC(C(F)(F)F)C(F)(F)F)N1CC2(CC(CC3=C4C=CC=[N+]4[B-](F)(F)n4cccc43)C2)C1` [Compound 2] are 0.39 nM, 0.33 nM, 0.2 nM, 0.24 nM and less than 3 µg/mL.
The corresponding values for `O=C(OC(C(F)(F)F)C(F)(F)F)N1CC2(CC(CC3=C4C=CC(c5ccc[nH]5)=[N+]4[B-](F)(F)n4cccc43)C2)C1` [Compound 2a] are 0.98 nM, 0.79 nM, 0.68 nM, 0.63 nM and less than 1 µg/mL.
Take `O=C1CO[C@H]2CCN(C(=O)N3CC4(CC(CC5=C6C=CC=[N+]6[B-](F)(F)n6cccc65)C4)C3)C[C@H]2N1` [Compound 4]: the IC50 worked out at 0.94 nM at MAGL, 1.33 nM on mMAGL, 2.4 nM at rMAGL and 1.14 nM on cMAGL (setting [2]). The “loss of potency against rat or cynomolgus monkey orthologs” value at rMAGL (rat or cynomolgus monkey MAGL) is given as “less than 4 fold”. Also, in series [1], the solubility (kinetic) is 112 µg/mL (≈ 232 µM).
With `O=C1CO[C@H]2CCN(C(=O)N3CC4(CC(CC5=C6C=CC(c7ccc[nH]7)=[N+]6[B-](F)(F)n6cccc65)C4)C3)C[C@H]2N1` [Compound 4a], the IC50 was found to be 0.14 nM at MAGL, 0.18 nM on mMAGL, 0.47 nM at rMAGL and 0.2 nM at cMAGL. The compound also displayed a kinetic solubility in series [1] of less than 0.3 µg/mL.
In the case of `O=C(N1CC2(CC(CC3=C4C=CC=[N+]4[B-](F)(F)n4cccc43)C2)C1)N1CC2(CC(n3cnc(C4CC4)n3)C2)C1` [Compound 5], the IC50 on MAGL was 0.58 nM; on mMAGL, 1.03 nM; on rMAGL, 0.98 nM; against cMAGL, 0.5 nM. This compound gave a kinetic solubility in series [1] of 46 µg/mL (≈ 86.6 µM).
